From PubChem BioAssay AID330 (DTP/NCI, 2004)
Values joined by “and” are separate entries in the source; they are usually repeats but may differ in a detail not shown here. Equal values may be shown once. Inconclusive results and toxic doses are left out. Peptide text beside a SMILES is read from it.

Tested on: P388 leukemia ip, CD2F1 mice, survival T/C
Experiment: NCI In Vivo Anticancer Drug Screen. Data for tumor model P388 Leukemia (intraperitoneal) in CD2F1 (CDF1) mice
Settings: endpoint: median survival time, higher = longer survival
Procedure, shortened: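 Mice carrying the transplanted tumor received test compound or vehicle. Survival was recorded in each group, and the value is the treated-group measurement divided by that of the vehicle-treated control group.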

[1] = dose: 50.0 mg/kg/injection, schedule: Q01DX009 (ip), vehicle: Klucel (hydroxypropylcellulose) (HPC)
[2] = dose: 100.0 mg/kg/injection, schedule: Q01DX009 (ip), vehicle: Klucel (hydroxypropylcellulose) (HPC)
[3] = dose: 200.0 mg/kg/injection, schedule: Q01DX009 (ip), vehicle: Klucel (hydroxypropylcellulose) (HPC)
[4] = dose: 100.0 mg/kg/injection, schedule: Q04DX002 (ip), vehicle: Klucel (hydroxypropylcellulose) (HPC)
[5] = dose: 200.0 mg/kg/injection, schedule: Q04DX002 (ip), vehicle: Klucel (hydroxypropylcellulose) (HPC)
[6] = dose: 12.5 mg/kg/injection, schedule: Q01DX009 (ip), vehicle: Klucel (hydroxypropylcellulose) (HPC)
[7] = dose: 50.0 mg/kg/injection, schedule: Q01DX009 (ip), vehicle: saline
[8] = dose: 400.0 mg/kg/injection, schedule: Q01DX009 (ip), vehicle: Klucel (hydroxypropylcellulose) (HPC)
[9] = dose: 60.0 mg/kg/injection, schedule: Q01DX005 (ip), vehicle: saline with Tween-80
[10] = dose: 120.0 mg/kg/injection, schedule: Q01DX005 (ip), vehicle: saline with Tween-80
[11] = dose: 240.0 mg/kg/injection, schedule: Q01DX005 (ip), vehicle: saline with Tween-80

O=C1CCSC(=O)N1c1ccc(F)cc1
T/C (dose: 100.0 mg/kg/injection, schedule: Q04DX002 (ip), vehicle: saline with Tween-80): 100 % of control | T/C (dose: 200.0 mg/kg/injection, schedule: Q04DX002 (ip), vehicle: saline with Tween-80): 105 % of control | T/C (dose: 400.0 mg/kg/injection, schedule: Q04DX002 (ip), vehicle: saline with Tween-80): 99 % of control

CCCCNC(C)[C@]1(O)Cc2c(O)c3c(c(O)c2[C@@H](OC2CC(N)C(O)C(C)O2)C1)C(=O)c1c(OC)cccc1C3=O (stereo partly drawn)
T/C (dose: 1.25 mg/kg/injection, schedule: Q01DX009 (ip), vehicle: water): 154 % of control | T/C (dose: 2.5 mg/kg/injection, schedule: Q01DX009 (ip), vehicle: water): 152 % of control and 170 % of control | T/C (dose: 5.0 mg/kg/injection, schedule: Q01DX009 (ip), vehicle: water): 176 % of control and 190 % of control | T/C (dose: 10.0 mg/kg/injection, schedule: Q01DX009 (ip), vehicle: water): 99 % of control

CC(=O)NCCSC(=O)C(O)(c1ccccc1)c1ccccc1
T/C [1]: 100 % of control | T/C [2]: 98 % of control | T/C [3]: 99 % of control

O=C1C(N=Nc2cc(Cl)ccc2Cl)C(O)N(c2ccc(Cl)cc2)C(=S)N1c1cccc(Cl)c1Cl (stereo not drawn)
T/C [4]: 100 % of control | T/C [5]: 101 % of control | T/C (dose: 400.0 mg/kg/injection, schedule: Q04DX002 (ip), vehicle: Klucel (hydroxypropylcellulose) (HPC)): 99 % of control

C[As](C)SCCC(N)C(=O)NC(CCS[As](C)C)C(=O)O (stereo not drawn)
T/C [6]: 110 % of control

O=C(O)/C=C\C(=O)OCc1ccc(Cl)cc1Cl
T/C (dose: 25.0 mg/kg/injection, schedule: Q01DX009 (ip), vehicle: saline with Tween-80): 86 % of control | T/C (dose: 50.0 mg/kg/injection, schedule: Q01DX009 (ip), vehicle: saline with Tween-80): 90 % of control

CCCCCCCCCCC[CH2][Sn]([CH3])([CH3])[O]C(C)=O
T/C (dose: 12.5 mg/kg/injection, schedule: Q01DX009 (ip), vehicle: saline): 99 % of control | T/C (dose: 25.0 mg/kg/injection, schedule: Q01DX009 (ip), vehicle: saline): 99 % of control | T/C [7]: 94 % of control

S=c1nc(N2CCOCC2)n(/C=C/c2ccccc2)c(=S)n1C(=N/C=C/c1ccccc1)N1CCOCC1
T/C (dose: 25.0 mg/kg/injection, schedule: Q04DX003 (ip), vehicle: saline with Tween-80): 113 % of control | T/C (dose: 50.0 mg/kg/injection, schedule: Q04DX003 (ip), vehicle: saline with Tween-80): 89 % of control | T/C (dose: 100.0 mg/kg/injection, schedule: Q04DX003 (ip), vehicle: saline with Tween-80): 91 % of control and 97 % of control | T/C (dose: 400.0 mg/kg/injection, schedule: Q04DX003 (ip), vehicle: saline with Tween-80): 87 % of control

CCCCCc1cc(O)c2c(c1)OC(C)(C)[C@@H]1CCC(C)=C[C@@H]21
T/C (dose: 1.0 mg/kg/injection, schedule: Q01DX005 (iv), vehicle: other): 100 % of control | T/C (dose: 1.5 mg/kg/injection, schedule: Q02HX016 (oral), vehicle: olive oil, sesame oil, peanut oil): 92 % of control | T/C (dose: 2.0 mg/kg/injection, schedule: Q01DX005 (iv), vehicle: other): 100 % of control | T/C (dose: 3.0 mg/kg/injection, schedule: Q02HX016 (oral), vehicle: olive oil, sesame oil, peanut oil): 92 % of control | T/C (dose: 4.0 mg/kg/injection, schedule: Q01DX005 (iv), vehicle: other): 100 % of control | T/C (dose: 8.0 mg/kg/injection, schedule: Q01DX005 (iv), vehicle: other): 92 % of control | T/C (dose: 16.0 mg/kg/injection, schedule: Q01DX005 (iv), vehicle: other): 100 % of control | T/C (dose: 32.0 mg/kg/injection, schedule: Q01DX005 (iv), vehicle: other): 109 % of control and 96 % of control | T/C (dose: 64.0 mg/kg/injection, schedule: Q01DX005 (iv), vehicle: other): 99 % of control and 100 % of control | T/C (dose: 128.0 mg/kg/injection, schedule: Q01DX005 (iv), vehicle: other): 99 % of control | T/C (dose: 256.0 mg/kg/injection, schedule: Q01DX005 (iv), vehicle: other): 99 % of control

NC(Cc1cnc[nH]1)C(=O)N1CCCC1C(=O)NC(CCC(=O)O)C(=O)O (stereo not drawn) (H-His-Pro-Glu-OH; configuration not given here)
T/C (dose: 7.5 mg/kg/injection, schedule: Q01DX009 (ip), vehicle: saline): 102 % of control | T/C (dose: 15.0 mg/kg/injection, schedule: Q01DX009 (ip), vehicle: saline): 100 % of control | T/C (dose: 30.0 mg/kg/injection, schedule: Q01DX009 (ip), vehicle: saline): 109 % of control

CCOC(=O)C(CC)CO (stereo not drawn)
T/C [7]: 101 % of control | T/C (dose: 100.0 mg/kg/injection, schedule: Q01DX009 (ip), vehicle: saline): 100 % of control | T/C (dose: 200.0 mg/kg/injection, schedule: Q01DX009 (ip), vehicle: saline): 101 % of control

CC1(C)COC(=O)C1=C(C#N)C#N
T/C (dose: 25.0 mg/kg/injection, schedule: Q04DX003 (ip), vehicle: saline): 100 % of control | T/C (dose: 50.0 mg/kg/injection, schedule: Q04DX003 (ip), vehicle: saline): 98 % of control | T/C (dose: 100.0 mg/kg/injection, schedule: Q04DX003 (ip), vehicle: saline): 102 % of control

O=c1[nH][nH]c2c(N=Cc3ccccc3O)ccc(F)c12
T/C (dose: 50.0 mg/kg/injection, schedule: Q01DX005 (ip), vehicle: Klucel + Tween-80): 108 % of control | T/C (dose: 100.0 mg/kg/injection, schedule: Q01DX005 (ip), vehicle: Klucel + Tween-80): 102 % of control | T/C (dose: 200.0 mg/kg/injection, schedule: Q01DX005 (ip), vehicle: Klucel + Tween-80): 108 % of control

O=C1OCCOCCOCCOC(=O)c2ccccc2SSc2ccccc21
T/C (dose: 100.0 mg/kg/injection, schedule: Q01DX001 (ip), vehicle: saline with Tween-80): 90 % of control | T/C (dose: 200.0 mg/kg/injection, schedule: Q01DX001 (ip), vehicle: saline with Tween-80): 97 % of control

CC(N)CCc1ccccc1 (stereo not drawn)
T/C (dose: 12.5 mg/kg/injection, schedule: Q01DX009 (ip), vehicle: saline sonified): 100 % of control | T/C (dose: 25.0 mg/kg/injection, schedule: Q01DX009 (ip), vehicle: saline sonified): 100 % of control | T/C (dose: 50.0 mg/kg/injection, schedule: Q01DX009 (ip), vehicle: saline sonified): 100 % of control

O=C1CCCCCCCCCCCCCCO1
T/C [1]: 97 % of control | T/C [2]: 106 % of control | T/C [3]: 102 % of control | T/C [8]: 106 % of control

CN(C)/C=C/C(=O)c1ccccc1
T/C [9]: 107 % of control | T/C [10]: 101 % of control | T/C [11]: 102 % of control

CCCNC(=O)N1C2C3CCC(C)(OC3(C)C)C21 (stereo not drawn)
T/C (dose: 50.0 mg/kg/injection, schedule: Q01DX005 (ip), vehicle: saline): 106 % of control | T/C (dose: 100.0 mg/kg/injection, schedule: Q01DX005 (ip), vehicle: saline): 100 % of control | T/C (dose: 200.0 mg/kg/injection, schedule: Q01DX005 (ip), vehicle: saline): 98 % of control

CC1=NCc2nnn(Cc3ccccc3)c2N1
T/C [1]: 100 % of control | T/C [2]: 95 % of control | T/C [3]: 103 % of control

CCCCCCC(/C=C/c1ccccc1)=N\O
T/C (dose: 6.25 mg/kg/injection, schedule: Q01DX009 (ip), vehicle: Klucel (hydroxypropylcellulose) (HPC)): 107 % of control | T/C [6]: 102 % of control | T/C (dose: 25.0 mg/kg/injection, schedule: Q01DX009 (ip), vehicle: Klucel (hydroxypropylcellulose) (HPC)): 103 % of control and 104 % of control | T/C [1]: 108 % of control and 112 % of control | T/C [2]: 103 % of control | T/C [3]: 104 % of control and 110 % of control | T/C [8]: 109 % of control and 98 % of control

N#CC(C(=O)CCCC(=O)Nc1ccc(Cl)cc1)c1ccccc1Cl (stereo not drawn)
T/C [9]: 113 % of control | T/C [10]: 113 % of control | T/C [11]: 106 % of control

CC(=O)N1CN(C)N(C)C1
T/C (dose: 60.0 mg/kg/injection, schedule: Q01DX005 (ip), vehicle: Klucel (hydroxypropylcellulose) (HPC)): 98 % of control | T/C (dose: 120.0 mg/kg/injection, schedule: Q01DX005 (ip), vehicle: Klucel (hydroxypropylcellulose) (HPC)): 91 % of control | T/C (dose: 240.0 mg/kg/injection, schedule: Q01DX005 (ip), vehicle: Klucel (hydroxypropylcellulose) (HPC)): 100 % of control

O=C(Cc1ccccc1)c1c[nH]c2c(O)ccc(O)c12
T/C (dose: 50.0 mg/kg/injection, schedule: Q04DX002 (ip), vehicle: Klucel (hydroxypropylcellulose) (HPC)): 104 % of control | T/C [4]: 108 % of control | T/C [5]: 111 % of control

c1ccc2c(NCCCCCCCNc3c4ccccc4nc4ccccc34)c3ccccc3nc2c1
T/C (dose: 2.5 mg/kg/injection, schedule: Q01DX009 (ip), vehicle: other): 157 % of control | T/C (dose: 5.0 mg/kg/injection, schedule: Q01DX009 (ip), vehicle: other): 155 % of control and 163 % of control and 175 % of control | T/C (dose: 10.0 mg/kg/injection, schedule: Q01DX009 (ip), vehicle: other): 112 % of control
